Experimental data from PubChem BioAssay (NCI).
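Growth conditions: 96-well plates. Treatment: test compound, 48 hours, 5 concentrations. Analysis: linear interpolation between bracketing concentrations; unreached endpoints set to highest concentration. TGI: total growth inhibition.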

Legend:
Experiment in all cases: NCI tumour cell line growth inhibition, 48 h
786-0 renal = test system: 786-0 renal
A498 renal = test system: A498 renal
A549 NSCLC = test system: A549 NSCLC
ACHN renal = test system: ACHN renal
BT-549 breast = test system: BT-549 breast
COLO 205 colon = test system: COLO 205 colon
DU-145 prostate = test system: DU-145 prostate
EKVX NSCLC = test system: EKVX NSCLC
HCC-2998 colon = test system: HCC-2998 colon
HCT-116 colon = test system: HCT-116 colon
HL-60(TB) leukemia = test system: HL-60(TB) leukemia
HOP-62 NSCLC = test system: HOP-62 NSCLC
HOP-92 NSCLC = test system: HOP-92 NSCLC
HS 578T breast = test system: HS 578T breast
HT29 colon = test system: HT29 colon
IGROV1 ovarian = test system: IGROV1 ovarian
K-562 leukemia = test system: K-562 leukemia
KM12 colon = test system: KM12 colon
M14 melanoma = test system: M14 melanoma
MCF7 breast = test system: MCF7 breast
MDA-MB-231 breast = test system: MDA-MB-231 breast
MDA-MB-435 = test system: MDA-MB-435
MDA-N = test system: MDA-N
MOLT-4 leukemia = test system: MOLT-4 leukemia
NCI-H226 lung = test system: NCI-H226 lung
NCI-H23 lung = test system: NCI-H23 lung
NCI-H460 lung = test system: NCI-H460 lung
NCI/ADR-RES ovarian = test system: NCI/ADR-RES ovarian
OVCAR-3 ovarian = test system: OVCAR-3 ovarian
OVCAR-4 ovarian = test system: OVCAR-4 ovarian
OVCAR-5 ovarian = test system: OVCAR-5 ovarian
OVCAR-8 ovarian = test system: OVCAR-8 ovarian
RPMI-8226 leukemia = test system: RPMI-8226 leukemia
RXF 393 renal = test system: RXF 393 renal
SF-268 CNS = test system: SF-268 CNS
SF-295 CNS = test system: SF-295 CNS
SF-539 CNS = test system: SF-539 CNS
SK-MEL-2 melanoma = test system: SK-MEL-2 melanoma
SK-MEL-28 melanoma = test system: SK-MEL-28 melanoma
SK-MEL-5 melanoma = test system: SK-MEL-5 melanoma
SK-OV-3 ovarian = test system: SK-OV-3 ovarian
SN12C renal = test system: SN12C renal
SNB-19 CNS = test system: SNB-19 CNS
SNB-75 CNS = test system: SNB-75 CNS
SW-620 colon = test system: SW-620 colon
T-47D breast = test system: T-47D breast
TK-10 renal = test system: TK-10 renal
U251 CNS = test system: U251 CNS
UACC-257 melanoma = test system: UACC-257 melanoma
UACC-62 melanoma = test system: UACC-62 melanoma
UO-31 renal = test system: UO-31 renal
CAKI-1 renal = test system: CAKI-1 renal
CCRF-CEM leukemia = test system: CCRF-CEM leukemia
HCT-15 colon = test system: HCT-15 colon
LOX IMVI melanoma = test system: LOX IMVI melanoma
MALME-3M melanoma = test system: MALME-3M melanoma
NCI-H522 lung = test system: NCI-H522 lung
PC-3 prostate = test system: PC-3 prostate
SR leukemia = test system: SR leukemia

Measured: TGI

Cc1ccc(S(=O)(=O)N2CCSCCSCCSCCN(S(=O)(=O)c3ccc(C)cc3)CC2)cc1
> 100 µM: 786-0 renal | A498 renal | A549 NSCLC | ACHN renal | BT-549 breast | COLO 205 colon | DU-145 prostate | EKVX NSCLC | HCC-2998 colon | HCT-116 colon | HL-60(TB) leukemia | HOP-62 NSCLC | HOP-92 NSCLC | HS 578T breast | HT29 colon | IGROV1 ovarian | K-562 leukemia | KM12 colon | M14 melanoma | MCF7 breast | MDA-MB-231 breast | MDA-MB-435 | MDA-N | MOLT-4 leukemia | NCI-H226 lung | NCI-H23 lung | NCI-H460 lung | NCI/ADR-RES ovarian | OVCAR-3 ovarian | OVCAR-4 ovarian | OVCAR-5 ovarian | OVCAR-8 ovarian | RPMI-8226 leukemia | RXF 393 renal | SF-268 CNS | SF-295 CNS | SF-539 CNS | SK-MEL-2 melanoma | SK-MEL-28 melanoma | SK-MEL-5 melanoma | SK-OV-3 ovarian | SN12C renal | SNB-19 CNS | SNB-75 CNS | SW-620 colon | T-47D breast | TK-10 renal | U251 CNS | UACC-257 melanoma | UACC-62 melanoma | UO-31 renal

C1CCCN(NC2=NCCO2)CC1
> 100 µM: 786-0 renal | A498 renal | A549 NSCLC | ACHN renal | CAKI-1 renal | CCRF-CEM leukemia | COLO 205 colon | EKVX NSCLC | HCC-2998 colon | HCT-116 colon | HCT-15 colon | HL-60(TB) leukemia | HOP-62 NSCLC | HS 578T breast | HT29 colon | IGROV1 ovarian | K-562 leukemia | KM12 colon | LOX IMVI melanoma | M14 melanoma | MALME-3M melanoma | MCF7 breast | MDA-MB-231 breast | MDA-MB-435 | MDA-N | MOLT-4 leukemia | NCI-H226 lung | NCI-H23 lung | NCI-H460 lung | NCI-H522 lung | NCI/ADR-RES ovarian | OVCAR-3 ovarian | OVCAR-4 ovarian | OVCAR-5 ovarian | OVCAR-8 ovarian | PC-3 prostate | RPMI-8226 leukemia | RXF 393 renal | SF-295 CNS | SF-539 CNS | SK-MEL-2 melanoma | SK-MEL-5 melanoma | SN12C renal | SNB-19 CNS | SNB-75 CNS | SR leukemia | SW-620 colon | T-47D breast | TK-10 renal | U251 CNS | UACC-257 melanoma | UACC-62 melanoma | UO-31 renal

C[C@@H]1CC[C@@H]2[C@@H](C1)O[C@@H]([C@@H](C)OCc1ccccc1)SC2(C)C
37.7 µM: M14 melanoma
67.4 µM: EKVX NSCLC
55.4 µM: TK-10 renal
30.7 µM: RXF 393 renal
40.2 µM: NCI/ADR-RES ovarian
31.6 µM: ACHN renal
58.8 µM: OVCAR-8 ovarian
35.8 µM: MDA-MB-435
69.7 µM: OVCAR-4 ovarian
39.9 µM: UACC-257 melanoma
32.4 µM: T-47D breast
31.1 µM: NCI-H522 lung
34.9 µM: SR leukemia
33.6 µM: SF-539 CNS | SNB-19 CNS
31.3 µM: SK-MEL-5 melanoma
37.9 µM: MALME-3M melanoma
36.7 µM: HT29 colon
36 µM: K-562 leukemia
35.4 µM: RPMI-8226 leukemia
38.2 µM: MDA-MB-231 breast
36.8 µM: HCT-15 colon
51.5 µM: NCI-H23 lung
> 100 µM: DU-145 prostate
32.9 µM: OVCAR-5 ovarian
63.3 µM: IGROV1 ovarian
42.6 µM: BT-549 breast
51.8 µM: SF-268 CNS
60.4 µM: SK-MEL-28 melanoma
41.9 µM: LOX IMVI melanoma
59.9 µM: SK-OV-3 ovarian
34.4 µM: KM12 colon
32.7 µM: COLO 205 colon
83.4 µM: A549 NSCLC
49.1 µM: NCI-H460 lung
32 µM: A498 renal
36.3 µM: MDA-N
45.4 µM: PC-3 prostate
30.6 µM: UO-31 renal
34.5 µM: CCRF-CEM leukemia | HCT-116 colon | NCI-H226 lung
32.6 µM: U251 CNS
33.7 µM: HCC-2998 colon
35.3 µM: MCF7 breast
31.2 µM: SF-295 CNS
43.2 µM: UACC-62 melanoma
32.3 µM: HOP-62 NSCLC | MOLT-4 leukemia | SN12C renal
34 µM: 786-0 renal | SNB-75 CNS | SW-620 colon
29 µM: CAKI-1 renal
31 µM: SK-MEL-2 melanoma

COc1ccc(N2C(=O)C(=O)C3(CCCCC3)C2=O)c2ccccc12
> 10 µM: A498 renal | A549 NSCLC | ACHN renal | CAKI-1 renal | CCRF-CEM leukemia | COLO 205 colon | DU-145 prostate | EKVX NSCLC | HCC-2998 colon | HCT-116 colon | HCT-15 colon | HL-60(TB) leukemia | HOP-62 NSCLC | HS 578T breast | HT29 colon | IGROV1 ovarian | K-562 leukemia | KM12 colon | LOX IMVI melanoma | M14 melanoma | MALME-3M melanoma | MCF7 breast | MDA-MB-231 breast | MDA-MB-435 | MDA-N | MOLT-4 leukemia | NCI-H226 lung | NCI-H23 lung | NCI-H460 lung | NCI-H522 lung | NCI/ADR-RES ovarian | OVCAR-4 ovarian | OVCAR-5 ovarian | OVCAR-8 ovarian | PC-3 prostate | RPMI-8226 leukemia | RXF 393 renal | SF-268 CNS | SF-295 CNS | SF-539 CNS | SK-MEL-2 melanoma | SK-MEL-28 melanoma | SK-MEL-5 melanoma | SK-OV-3 ovarian | SN12C renal | SNB-19 CNS | SNB-75 CNS | SR leukemia | SW-620 colon | T-47D breast | TK-10 renal | U251 CNS | UACC-62 melanoma | UO-31 renal
